In patent publication US8802665B2, “Pyrrolidine derivatives” (Hoffman-La Roche Inc., priority 2012, dated 2014) one finds IC50 data, which are given here for 19 compounds.

In this test the target is human Cat S (Homo sapiens (Human), UniProt P25774). In words: Cathepsin enzyme inhibition assay (fluorogenic peptide substrate cleavage). The test is classed as biochemical. The conditions noted are these: human Cathepsin S 1 nM, substrate Z-Val-Val-Arg-AMC 20 μM, pH 6.5; read-out: Ic50 CatS: human. As for the experimental part: Cathepsin Enzyme Inhibition Assay
Sequence of human Cat S (P25774 115-331): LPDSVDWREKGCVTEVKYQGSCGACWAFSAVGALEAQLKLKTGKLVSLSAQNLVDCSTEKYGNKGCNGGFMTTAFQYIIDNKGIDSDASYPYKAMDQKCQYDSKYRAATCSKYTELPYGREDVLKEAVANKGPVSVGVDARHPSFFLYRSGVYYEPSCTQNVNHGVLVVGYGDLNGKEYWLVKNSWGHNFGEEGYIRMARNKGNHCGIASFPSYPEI
Enzyme activity is measured by observing the increase in fluorescence intensity caused by cleavage of a peptide substrate containing a fluorophore whose emission is quenched in the intact peptide. • Assay buffer: 100 mM potassium phosphate pH 6.5, EDTA-Na 5 mM, Triton X-100 0.001%, DTT 5 mM. • Enzymes (all at 1 nM): human and mouse Cathepsin S, Cat K, Cat B, Cat L. • Substrate (20 μM): Z-Val-Val-Arg-AMC, except for Cat K which uses Z-Leu-Arg-AMC (both from Bachem). • Z=Benzyloxycarbonyl. • AMC=7-Amino-4-Methyl-Coumarin. • DTT=dithiothreitol. • Final volume: 100 μL. • Excitation 360 nm, Emission 465 nm.
Enzyme is added to the substance dilutions in 96-well microtitre plates and the reaction is started with substrate. Fluorescence emission is measured over 20 minutes, during which time a linear increase is observed in the absence of inhibitor. IC50 are calculated by standard methods.
Inhibition of human Cat S, mouse Cat S, human Cat K, human Cat B, human Cat L and mouse Cat L have been measured separately. The results obtained for human Cat S for representative compounds of the invention are expressed in the following table in μM.

`N#CC1(NC(=O)[C@@H]2C[C@@H](S(=O)(=O)c3ccccc3Cl)CN2C(=O)C2(N3CCCCC3)CC2)CC1` [Example 25, (2S,4R)-4-(2-Chlorophenylsulfonyl)-N-(1-cyanocyclopropyl)-1-(1-(piperidin-1-yl)cyclopropanecarbonyl)pyrrolidine-2-carboxamide]: the 50% inhibitory concentration (IC50) (in general, the point on the concentration scale where inhibition reaches its midpoint) came out at 0.5 nM.
In the case of `CC1CCCN(C2(C(=O)N3C[C@H](S(=O)(=O)c4ccccc4Cl)C[C@H]3C(=O)NC3(C#N)CC3)CC2)C1` (stereo partly drawn) [Example 26, (2S,4R)-4-(2-Chlorophenylsulfonyl)-N-(1-cyanocyclopropyl)-1-(1-(3-methylpiperidin-1-yl)cyclopropanecarbonyl)pyrrolidine-2-carboxamide] it was 0.4 nM; in that of `N#CC1(NC(=O)[C@@H]2C[C@@H](S(=O)(=O)c3ccccc3Cl)CN2C(=O)C2(N3CCSCC3)CC2)CC1` [Example 27, (2S,4R)-4-(2-Chlorophenylsulfonyl)-N-(1-cyanocyclopropyl)-1-(1-thiomorpholinocyclopropanecarbonyl)pyrrolidine-2-carboxamide], 0.3 nM; in that of `N#CC1(NC(=O)[C@@H]2C[C@@H](S(=O)(=O)c3ccccc3Cl)CN2C(=O)C2(N3CCCC3)CC2)CC1` [Example 28, (2S,4R)-4-(2-Chlorophenylsulfonyl)-N-(1-cyanocyclopropyl)-1-(1-(pyrrolidin-1-yl)cyclopropanecarbonyl)pyrrolidine-2-carboxamide], 1.2 nM.
With `CC(C)(C)OC(=O)N1CCN(C2(C(=O)N3C[C@H](S(=O)(=O)c4ccccc4Cl)C[C@H]3C(=O)NC3(C#N)CC3)CC2)CC1` [Example 29, tert-Butyl 4-(1-((2S,4R)-4-(2-chlorophenylsulfonyl)-2-(1-cyanocyclopropylcarbamoyl)pyrrolidine-1-carbonyl)cyclopropyl)piperazine-1-carboxylate], the 50% inhibitory concentration (IC50) amounted to 2.3 nM.
Regarding `N#CC1(NC(=O)[C@@H]2C[C@@H](S(=O)(=O)c3ccccc3Cl)CN2C(=O)C2(N3CCNCC3)CC2)CC1` [Example 30, (2S,4R)-4-(2-Chlorophenylsulfonyl)-N-(1-cyanocyclopropyl)-1-(1-(piperazin-1-yl)cyclopropanecarbonyl)pyrrolidine-2-carboxamide], the concentration for half-maximal inhibition (IC50) stood at 4.2 nM.
Then `CC(=O)N1CCN(C2(C(=O)N3C[C@H](S(=O)(=O)c4ccccc4Cl)C[C@H]3C(=O)NC3(C#N)CC3)CC2)CC1` [Example 31, (2S,4R)-1-(1-(4-Acetylpiperazin-1-yl)cyclopropanecarbonyl)-4-(2-chlorophenylsulfonyl)-N-(1-cyanocyclopropyl)pyrrolidine-2-carboxamide], with 2.2 nM; and `CS(=O)(=O)N1CCN(C2(C(=O)N3C[C@H](S(=O)(=O)c4ccccc4Cl)C[C@H]3C(=O)NC3(C#N)CC3)CC2)CC1` [Example 32, (2S,4R)-4-(2-Chlorophenylsulfonyl)-N-(1-cyanocyclopropyl)-1-(1-(4-(methylsulfonyl)piperazin-1-yl)cyclopropanecarbonyl)pyrrolidine-2-carboxamide], with 2.5 nM.
Consider `COC(=O)N1CCN(C2(C(=O)N3C[C@H](S(=O)(=O)c4ccccc4Cl)C[C@H]3C(=O)NC3(C#N)CC3)CC2)CC1` [Example 33, Methyl 4-(1-((2S,4R)-4-(2-chlorophenylsulfonyl)-2-(1-cyanocyclopropylcarbamoyl)pyrrolidine-1-carbonyl)cyclopropyl)piperazine-1-carboxylate], for which the IC50 stood at 2.6 nM.
As for `N#CC1(NC(=O)[C@@H]2C[C@@H](S(=O)(=O)c3ccccc3Cl)CN2C(=O)C2(N3CCN(C=O)CC3)CC2)CC1` [Example 34, (2S,4R)-4-(2-Chlorophenylsulfonyl)-N-(1-cyanocyclopropyl)-1-(1-(4-formylpiperazin-1-yl)cyclopropanecarbonyl)pyrrolidine-2-carboxamide], the IC50 came out at 1.4 nM.
With `N#CC1(NC(=O)[C@@H]2C[C@@H](S(=O)(=O)c3ccccc3Cl)CN2C(=O)C2(N3CCN(C(=O)C(F)(F)F)CC3)CC2)CC1` [Example 35, (2S,4R)-4-(2-Chlorophenylsulfonyl)-N-(1-cyanocyclopropyl)-1-(1-(4-(2,2,2-trifluoroacetyl)piperazin-1-yl)cyclopropanecarbonyl)pyrrolidine-2-carboxamide], the IC50 turned out to be 3.7 nM.
Then `CCN1CCN(C2(C(=O)N3C[C@H](S(=O)(=O)c4ccccc4Cl)C[C@H]3C(=O)NC3(C#N)CC3)CC2)CC1` [Example 36, (2S,4R)-4-(2-Chlorophenylsulfonyl)-N-(1-cyanocyclopropyl)-1-(1-(4-ethylpiperazin-1-yl)cyclopropanecarbonyl)pyrrolidine-2-carboxamide], with 6.2 nM; and `N#CC1(NC(=O)[C@@H]2C[C@@H](S(=O)(=O)c3ccccc3Cl)CN2C(=O)C2(N3CCC(c4ccccc4)CC3)CC2)CC1` [Example 37, (2S,4R)-4-(2-chlorophenylsulfonyl)-N-(1-cyanocyclopropyl)-1-(1-(4-phenylpiperidin-1-yl)cyclopropanecarbonyl)pyrrolidine-2-carboxamide], with 1.2 nM.
In the case of `CC1CCN(C2(C(=O)N3C[C@H](S(=O)(=O)c4ccccc4Cl)C[C@H]3C(=O)NC3(C#N)CC3)CC2)CC1` [Example 38, (2S,4R)-4-(2-chlorophenylsulfonyl)-N-(1-cyanocyclopropyl)-1-(1-(4-methylpiperidin-1-yl)cyclopropanecarbonyl)pyrrolidine-2-carboxamide] it was 0.5 nM; in that of `N#CC1(NC(=O)[C@@H]2C[C@@H](S(=O)(=O)c3ccccc3Cl)CN2C(=O)C2(N3CCOCC3)CC2)CC1` [Example 39, (2S,4R)-4-(2-Chlorophenylsulfonyl)-N-(1-cyanocyclopropyl)-1-(1-morpholino-cyclopropanecarbonyl)pyrrolidine-2-carboxamide], 0.8 nM.
Turning to `N#CC1(NC(=O)[C@@H]2C[C@@H](S(=O)(=O)c3ccccc3Cl)CN2C(=O)C2(N3CCCCCC3)CC2)CC1` [Example 40, (2S,4R)-1-(1-(Azepan-1-yl)cyclopropanecarbonyl)-4-(2-chlorophenylsulfonyl)-N-(1-cyanocyclopropyl)pyrrolidine-2-carboxamide], the IC50 was 0.5 nM.
As to `CC1CCCCN1C1(C(=O)N2C[C@H](S(=O)(=O)c3ccccc3Cl)C[C@H]2C(=O)NC2(C#N)CC2)CC1` (stereo partly drawn) [Example 41, (2S,4R)-4-(2-Chlorophenylsulfonyl)-N-(1-cyanocyclopropyl)-1-(1-(2-methylpiperidin-1-yl)cyclopropanecarbonyl)pyrrolidine-2-carboxamide], the concentration for half-maximal inhibition (IC50) stood at 0.9 nM.
Consider `N#CC1(NC(=O)[C@@H]2C[C@@H](S(=O)(=O)c3ccc(F)cc3Cl)CN2C(=O)C2(N3CCCCC3)CC2)CC1` [Example 42, (2S,4R)-4-(2-Chloro-4-fluorophenylsulfonyl)-N-(1-cyanocyclopropyl)-1-(1-(piperidin-1-yl)cyclopropanecarbonyl)pyrrolidine-2-carboxamide], for which the IC50 was 0.4 nM.
With `N#CC1(NC(=O)[C@@H]2C[C@@H](S(=O)(=O)c3cccc(Cl)c3)CN2C(=O)C2(N3CCCCC3)CC2)CC1` [Example 43, (2S,4R)-4-(3-Chlorophenylsulfonyl)-N-(1-cyanocyclopropyl)-1-(1-(piperidin-1-yl)cyclopropanecarbonyl)pyrrolidine-2-carboxamide], the IC50 worked out at 0.3 nM.
